Measurements as given in patent publication US20260363243A1 (priority 2022, published 2026).
Where two headings read alike, the source gives them in different places.

Key:
[1] = tested on: Phytophthora capsici; assay: In vitro inhibition of hypha growth of oomycete pathogens (microplate, OD595): Phytophthora capsici; type: cell-based
[2] = tested on: Phytophthora sojae; assay: In vitro inhibition of hypha growth of oomycete pathogens (microplate, OD595): Phytophthora sojae; type: cell-based
[3] = tested on: cucumber downy mildew; assay: Activity in vivo for inhibiting cucumber downy mildew (potting method, greenhouse)
Excerpt: The test and investigation method refers to a SOP-SC-1098 cucumber downy mildew potting method in the fungicide section of Standard operation Specification for testing biological Activity of pesticides written by Kang Zhuo and Gu Baogen.

[4] = tested on: Phytophthora nicotianae; assay: In vitro inhibition of hypha growth of oomycete pathogens (microplate, OD595): Phytophthora nicotianae; type: cell-based
[5] = tested on: Phytophthora infestans; assay: microbe, parasite or virus in culture; type: cell-based
[6] = tested on: cucumber downy mildew; details: Table 3, data from Li, J. L. et al. 2020, cited from earlier work
[7] = read-out: inhibitory activity on hypha growth
[8] = Phytophthora nicotianae, read-out: inhibitory activity on hypha growth

## COC(CC(=O)N1CCC(c2nc(C3=NOC(c4c(F)cccc4F)C3)cs2)CC1)OCC(F)(F)F (stereo not shown) [II-18]
[1]; 5, 0.5 and 0.05 mg/L, in words
  inhibitory activity compared with OXA: comparable to that of the control agent OXA
[1]; [7]
  inhibition at 0.005 µg/mL: 90 to 100%
  inhibition at 0.05 µg/mL: 90 to 100%
  inhibition at 0.5 µg/mL: 90 to 100%
  inhibition at 5 µg/mL: 90 to 100%
[2]; 5, 0.5 and 0.05 mg/L, in words
  inhibitory activity compared with OXA: comparable to that of the control agent OXA
[2]; [7]
  inhibition at 0.005 µg/mL: 90 to 100%
  inhibition at 0.05 µg/mL: 90 to 100%
  inhibition at 0.5 µg/mL: 90 to 100%
  inhibition at 5 µg/mL: 90 to 100%
[3]; 0.005 mg/L, in words
  efficacy compared with OXA: comparable to that of the control agent OXA
[3]; 0.005 mg/L, re-screening, Table 2
  Control effect: A (90%≤A≤100%)
[3]; 0.02 mg/L, re-screening, Table 2
  Control effect: A (90%≤A≤100%)
[3]; 0.078 mg/L, in words
  efficacy compared with dimethomorph and cyazofamid: superior to that of dimethomorph and cyazofamid
  efficacy compared with oxathiapiprolin: equivalent to that of oxathiapiprolin at the same concentration
[3]; 0.078 mg/L, re-screening
  Control effect: ≥ 90%
[3]; 0.078 mg/L, re-screening, Table 2
  Control effect: A (90%≤A≤100%)
[3]; 0.312 mg/L, re-screening, Table 2
  Control effect: A (90%≤A≤100%)
[3]; 0.625 mg/L, Table 3
  Control effect: A (90% ≤ A ≤ 100%)
[3]; 1.25 mg/L, Table 1
  Control effect: A (90%≤A≤100%)
[3]; 1.25 mg/L, re-screening, Table 2
  Control effect: A (90%≤A≤100%)
[3]; 2.5 mg/L, Table 3
  Control effect: A (90% ≤ A ≤ 100%)
[3]; 5 mg/L, Table 1
  Control effect: A (90%≤A≤100%)
[3]; 10 mg/L, Table 3
  Control effect: A (90% ≤ A ≤ 100%)
[3]; 20 mg/L, Table 1
  Control effect: A (90%≤A≤100%)
[3]; re-screening, in words
  bactericidal activity: excellent bactericidal activity
[4]; [8]
  inhibition at 0.005 µg/mL: 75 to 90%
  inhibition at 0.05 µg/mL: 90 to 100%
  inhibition at 0.5 µg/mL: 90 to 100%
  inhibition at 5 µg/mL: 90 to 100%
[4]; Pythium nicotianae, 5, 0.5 and 0.05 mg/L, in words
  inhibitory activity compared with OXA: comparable to that of the control agent OXA
[5]; 5, 0.5 and 0.05 mg/L, in words
  inhibitory activity compared with OXA: comparable to that of the control agent OXA
[5]; [7]
  inhibition at 0.005 µg/mL: 90 to 100%
  inhibition at 0.05 µg/mL: 90 to 100%
  inhibition at 0.5 µg/mL: 90 to 100%
  inhibition at 5 µg/mL: 90 to 100%

## CC/C(C)=C/CC(=O)N1CCC(c2nc(C3=NOC(c4c(F)cccc4F)C3)cs2)CC1 (stereo not shown) [comparative 3]
[6]; 0.625 mg/L
  Control effect: E (0% ≤ E < 45%)
[6]; 2.5 mg/L
  Control effect: C (60% ≤ C < 75%)
[6]; 10 mg/L
  Control effect: A (90% ≤ A ≤ 100%)

## CO/N=C(/C(=O)N1CCC(c2nc(C3=NOC(c4c(F)cccc4F)C3)cs2)CC1)c1ccccc1 (stereo not shown) [Compound I-18]
[3]; 20 mg/L, Table 1
  Control effect: D (45%≤D<60%)

## CCO/N=C/C(=O)N1CCC(c2nc(C3=NOC(c4c(F)cccc4F)C3)cs2)CC1 (stereo not shown) [Compound I-29]
[3]; 1.25 mg/L, Table 1
  Control effect: A (90%≤A≤100%)
[3]; 5 mg/L, Table 1
  Control effect: A (90%≤A≤100%)
[3]; 20 mg/L, Table 1
  Control effect: A (90%≤A≤100%)

## COC(OC)C(C)C(=O)N1CCC(c2nc(C3=NOC(c4c(F)cccc4F)C3)cs2)CC1 (stereo not shown) [II-6]
[3]; 5 mg/L, Table 1
  Control effect: D (45%≤D<60%)
[3]; 20 mg/L, Table 1
  Control effect: C (60%≤C<75%)

## O=C(CN1CCCC(O)C1)N1CCC(c2nc(C3=NOC(c4c(F)cccc4F)C3)cs2)CC1 (stereo not shown) [comparative 7]
[6]; 0.625 mg/L
  Control effect: E (0% ≤ E < 45%)
[6]; 2.5 mg/L
  Control effect: E (0% ≤ E < 45%)
[6]; 10 mg/L
  Control effect: E (0% ≤ E < 45%)

## CO/N=C(/C(=O)N1CCC(c2nc(C3=NOC(c4c(F)cccc4F)C3)cs2)CC1)c1cccc(C)c1 (stereo not shown) [Compound I-20]
[3]; 20 mg/L, Table 1
  Control effect: D (45%≤D<60%)

## CO/C=C(/C(=O)N1CCC(c2nc(C3=NOC(c4c(F)cccc4F)C3)cs2)CC1)c1cc(C)ccc1C (stereo not shown) [Compound I-14]
[3]; 1.25 mg/L, Table 1
  Control effect: A (90%≤A≤100%)
[3]; 5 mg/L, Table 1
  Control effect: A (90%≤A≤100%)
[3]; 20 mg/L, Table 1
  Control effect: A (90%≤A≤100%)
